{
  "source": "patent US5300629A",
  "about": "“Bactericidal and/or bacteriostatic peptides isolated from hemolymph of honeybees” (Plant Genetic Systems, N.V., priority 1987, dated 1994)",
  "format_in_all_cases": "cell-based",
  "key": {"[1]": {"tested_on": "Erwinia carotovora var carotovora NCPPB 312", "experiment": "Minimal inhibitory concentration in liquid culture", "conditions": "200 μl rich medium, 10^4 log-phase bacteria"}, "[2]": {"tested_on": "Citrobacter freundii ATCC 8090", "experiment": "Minimal inhibitory concentration in liquid culture", "conditions": "200 μl rich medium, 10^4 log-phase bacteria"}, "[3]": {"tested_on": "Yersinia enterocolitica PGS C-1106", "experiment": "Inhibition zone assay", "conditions": "* synthetic ApidIa and heattreated immune lymph instead of Bee6 and native immune lymph"}, "[4]": {"tested_on": "Pseudomonas solanacearum ATCC 11696", "set-up": "key: --: \"-\" means that no inhibition has been found", "conditions": "* synthetic ApidIa and heattreated immune lymph instead of Bee6 and native immune lymph"}, "[5]": {"tested_on": "Erwinia carotovora var atroseptica LMG 2385", "experiment": "Minimal inhibitory concentration in liquid culture", "conditions": "200 μl rich medium, 10^4 log-phase bacteria"}, "[6]": {"tested_on": "Pseudomonas syringae pv. maculicola NCPPB 1776", "experiment": "Minimal inhibitory concentration in liquid culture", "conditions": "200 μl rich medium, 10^4 log-phase bacteria"}, "[7]": {"tested_on": "Pseudomonas syringae pv. tomato NCPPB 1106", "experiment": "Minimal inhibitory concentration in liquid culture", "conditions": "200 μl rich medium, 10^4 log-phase bacteria"}, "[8]": {"tested_on": "Pseudomonas syringae pv. tabaci NCPPB 1237", "experiment": "Inhibition zone assay", "conditions": "* synthetic ApidIa and heattreated immune lymph instead of Bee6 and native immune lymph"}, "[9]": {"tested_on": "Agrobactierium tumefaciens DSM 3129", "experiment": "Minimal inhibitory concentration in liquid culture", "conditions": "200 μl rich medium, 10^4 log-phase bacteria"}, "[10]": {"tested_on": "Pseudomonas solanacearum ATCC 11696", "conditions": "200 μl rich medium, 10^4 log-phase bacteria"}, "[11]": {"tested_on": "Pseudomonas syringae pv. tomato NCPPB 1106", "experiment": "Inhibition zone assay", "conditions": "* synthetic ApidIa and heattreated immune lymph instead of Bee6 and native immune lymph"}, "[12]": {"tested_on": "Escherichia coli NCTC 9001", "experiment": "Minimal inhibitory concentration in liquid culture", "conditions": "200 μl rich medium, 10^4 log-phase bacteria"}, "[13]": {"tested_on": "E. coli NCTC 9001", "experiment": "Bactericidal activity, method not stated", "conditions": "lyophilized apidaecins resuspended in PBS"}, "[14]": {"tested_on": "Bacillus megaterium QB 1551", "experiment": "Minimal inhibitory concentration in liquid culture", "conditions": "200 μl rich medium, 10^4 log-phase bacteria, + = no inhibition at maximal value"}, "[15]": {"tested_on": "Erwinia salicis NCPPB 2530", "experiment": "Minimal inhibitory concentration in liquid culture", "conditions": "200 μl rich medium, 10^4 log-phase bacteria"}, "[16]": {"tested_on": "E. coli NCTC 9001", "conditions": "E. coli NCTC 9001; 4 μg/well", "procedure": "Whole lymph or purified components, resuspended in PBS to a final volume equal to the starting material (heated lymph), was applied in 3 mm wells on agar plates seeded with the test organisms. Antibacterial activity was determined by measuring the growth-inhibition zones (in mm).\nTest conditions: agar inhibition zone obtained with 10 namomole apidaecin, resuspended in 20 μl H2 O/well."}, "[17]": {"tested_on": "Shigella flexneri CP 87", "experiment": "Minimal inhibitory concentration in liquid culture", "conditions": "200 μl rich medium, 10^4 log-phase bacteria", "procedure": "(§1) In addition the exact concentration was determined precisely by amino-acid analysis and an equal sample of natural Bee 6b was prepared, allowing to compare the bactericidal activity of both natural and synthetic apidaecins by means of growth inhibition assays in liquid cultures (see mat & Meth.). The minimal inhibitory concentrations (μg/ml) were determined in liquid culture : 200 μl of a rich medium (trypticase soy broth or nutrient broth) was inoculated with 10^4 log-phase bacteria. Peptide concentrations ranged between 0 and 200 μg/ml. The values express μg/ml; when no inhibition was noticed the maximal values are given (+200 μg/ml or +50 μg/ml). All peptides were chemically synthesized, except for bee 6b which is purified from bee lymph."}, "[18]": {"tested_on": "Corynebacterium michiganense pv. michiganense NCPPB 1573", "experiment": "Minimal inhibitory concentration in liquid culture", "conditions": "200 μl rich medium, 10^4 log-phase bacteria, + = no inhibition at maximal value", "procedure": "as §1"}, "[19]": {"tested_on": "Xanthomonas campestris pv. vesicatoria LMG 905", "experiment": "Minimal inhibitory concentration in liquid culture", "conditions": "200 μl rich medium, 10^4 log-phase bacteria, + = no inhibition at maximal value", "procedure": "as §1"}, "[20]": {"tested_on": "Corynebacterium insidiosum NCPPB 1109", "experiment": "Minimal inhibitory concentration in liquid culture", "conditions": "200 μl rich medium, 10^4 log-phase bacteria", "procedure": "as §1"}, "[21]": {"tested_on": "Salmonella typhimurium ATCC 23565", "experiment": "Minimal inhibitory concentration in liquid culture", "conditions": "200 μl rich medium, 10^4 log-phase bacteria"}, "[22]": {"tested_on": "Rhizobium meliloti ZB 314", "experiment": "Minimal inhibitory concentration in liquid culture", "conditions": "200 μl rich medium, 10^4 log-phase bacteria"}, "[23]": {"tested_on": "protoplasts derived from Lactobacillus sp", "experiment": "Protoplast regeneration, agar diffusion assay", "conditions": "Lactobacillus protoplasts on RM MRS medium, 4 μg/well", "procedure": "Protoplasts were made using lysozyme concentrations ranging between 0 and 5 mg/ml and then incubated for 1 hour in the presence of Apid Ia (concentrations ranging between 0-10 μg/ml) . Cells were pelleted, resuspended and plated out on RM MRS. To estimate the ratio of protoplasts/normal cells, controls were plated out on MRS without the stabilizing sucrose. This prevented the regenerating of the protoplasts and enabled the deduction of the number of normal cells. To evaluate the regeneration capability of the said protoplasts in the presence of Apid Ia an agar diffusion assay was performed : the protoplasts were applied on RM MRS medium, wells were made and filled up with an apidaecin solution (4 μg/well)."}, "[24]": {"tested_on": "Xanthomonas campestris pv. campestris A 902", "experiment": "Inhibition zone assay", "set-up": "key: --: \"-\" means that no inhibition has been found", "conditions": "* synthetic ApidIa and heattreated immune lymph instead of Bee6 and native immune lymph"}, "[25]": {"tested_on": "Salmonella Newport CD 94", "experiment": "Minimal inhibitory concentration in liquid culture", "conditions": "200 μl rich medium, 10^4 log-phase bacteria"}, "[26]": {"tested_on": "Xanthomonas campestris pv. campestris A 902", "experiment": "Minimal inhibitory concentration in liquid culture", "conditions": "200 μl rich medium, 10^4 log-phase bacteria, + = no inhibition at maximal value"}, "[27]": {"tested_on": "Pseudomonas syringae pv. maculicola NCPPB 1776", "experiment": "Inhibition zone assay", "conditions": "* synthetic ApidIa and heattreated immune lymph instead of Bee6 and native immune lymph"}, "[28]": {"tested_on": "Pseudomonas syringae pv. tabaci NCPPB 1237", "experiment": "Minimal inhibitory concentration in liquid culture", "conditions": "200 μl rich medium, 10^4 log-phase bacteria"}},
  "note": "Where a SMILES comes first, the peptide text is derived from it.",
  "data": [
    {"compound": "CC[C@H](C)[C@H](NC(=O)[C@H](CCCNC(=N)N)NC(=O)[C@@H]1CCCN1C(=O)[C@H](Cc1c[nH]cn1)NC(=O)[C@@H]1CCCN1C(=O)[C@@H]1CCCN1C(=O)[C@H](CCCNC(=N)N)NC(=O)[C@@H]1CCCN1C(=O)[C@H](CCC(N)=O)NC(=O)[C@@H]1CCCN1C(=O)[C@@H](NC(=O)[C@H](Cc1ccc(O)cc1)NC(=O)[C@@H](NC(=O)[C@@H]1CCCN1C(=O)[C@H](CCCNC(=N)N)NC(=O)[C@H](CC(N)=O)NC(=O)[C@H](CC(N)=O)NC(=O)CN)C(C)C)[C@@H](C)CC)C(=O)O", "note": "[Apid Ia] (H-GNNRPVYIPQPRPPHPRI-OH)", "values": [
      {"measurement": "minimal inhibitory concentration", "setting": "[1]", "value": 1, "unit": "µg/mL"},
      {"measurement": "minimal inhibitory concentration", "setting": "[2]", "value": 0.15, "unit": "µg/mL"},
      {"measurement": "diameter of growth-inhibition zone", "setting": "[3]", "value": 9, "unit": "mm"},
      {"measurement": "diameter of growth-inhibition zone", "setting": "[4]", "value": "--"},
      {"measurement": "minimal inhibitory concentration", "setting": "[5]", "value": 1, "unit": "µg/mL"},
      {"measurement": "minimal inhibitory concentration", "setting": "[6]", "value": 0.5, "unit": "µg/mL"},
      {"measurement": "minimal inhibitory concentration", "setting": "[7]", "value": 0.2, "unit": "µg/mL"},
      {"measurement": "diameter of growth-inhibition zone", "setting": "[8]", "value": 7, "unit": "mm"},
      {"measurement": "minimal inhibitory concentration", "setting": "[9]", "value": 0.2, "unit": "µg/mL"},
      {"measurement": "minimal inhibitory concentration", "setting": "[10]", "value": 25, "unit": "µg/mL"},
      {"measurement": "diameter of growth-inhibition zone", "setting": "[11]", "value": 9, "unit": "mm"},
      {"measurement": "minimal inhibitory concentration", "setting": "[12]", "value": 0.1, "unit": "µg/mL"},
      {"measurement": "bactericidal activity", "setting": "[13]", "value": "possessed a bactericidal activity"},
      {"measurement": "minimal inhibitory concentration", "setting": "[14]", "value": 150, "unit": "µg/mL"},
      {"measurement": "minimal inhibitory concentration", "setting": "[15]", "value": 0.02, "unit": "µg/mL"},
      {"measurement": "inhibition zone, positive control of the protoplast test", "setting": "[16]", "value": "clear inhibition zone"},
      {"measurement": "minimal inhibitory concentration", "setting": "[17]", "value": 0.1, "unit": "µg/mL"},
      {"measurement": "minimal inhibitory concentration", "setting": "[18]", "value": "> 50", "unit": "µg/mL"},
      {"measurement": "minimal inhibitory concentration", "setting": "[19]", "value": "> 50", "unit": "µg/mL"},
      {"measurement": "minimal inhibitory concentration", "setting": "[20]", "value": 50, "unit": "µg/mL"},
      {"measurement": "minimal inhibitory concentration", "setting": "[21]", "value": 0.1, "unit": "µg/mL"},
      {"measurement": "minimal inhibitory concentration", "setting": "[22]", "value": 0.1, "unit": "µg/mL"},
      {"measurement": "inhibition zone, regeneration of protoplasts", "setting": "[23]", "value": "No inhibition zone was noticed"},
      {"measurement": "diameter of growth-inhibition zone", "setting": "[24]", "value": "--"},
      {"measurement": "minimal inhibitory concentration", "setting": "[25]", "value": 0.2, "unit": "µg/mL"},
      {"measurement": "minimal inhibitory concentration", "setting": "[26]", "value": "> 50", "unit": "µg/mL"},
      {"measurement": "diameter of growth-inhibition zone", "setting": "[27]", "value": 8, "unit": "mm"},
      {"measurement": "minimal inhibitory concentration", "setting": "[28]", "value": 0.5, "unit": "µg/mL"}
    ]}
  ]
}
